Results from patent US11332459B2 (TEIJIN PHARMA LIMITED, priority 2017, dated 2022).
Where a name gives a salt, the structure may show the parent alone.

Target: T1, human TRPC6 (Homo sapiens, UniProt Q9Y210)
T1 construct: expressed in transfected cells
T1 sequence (Q9Y210 1-931): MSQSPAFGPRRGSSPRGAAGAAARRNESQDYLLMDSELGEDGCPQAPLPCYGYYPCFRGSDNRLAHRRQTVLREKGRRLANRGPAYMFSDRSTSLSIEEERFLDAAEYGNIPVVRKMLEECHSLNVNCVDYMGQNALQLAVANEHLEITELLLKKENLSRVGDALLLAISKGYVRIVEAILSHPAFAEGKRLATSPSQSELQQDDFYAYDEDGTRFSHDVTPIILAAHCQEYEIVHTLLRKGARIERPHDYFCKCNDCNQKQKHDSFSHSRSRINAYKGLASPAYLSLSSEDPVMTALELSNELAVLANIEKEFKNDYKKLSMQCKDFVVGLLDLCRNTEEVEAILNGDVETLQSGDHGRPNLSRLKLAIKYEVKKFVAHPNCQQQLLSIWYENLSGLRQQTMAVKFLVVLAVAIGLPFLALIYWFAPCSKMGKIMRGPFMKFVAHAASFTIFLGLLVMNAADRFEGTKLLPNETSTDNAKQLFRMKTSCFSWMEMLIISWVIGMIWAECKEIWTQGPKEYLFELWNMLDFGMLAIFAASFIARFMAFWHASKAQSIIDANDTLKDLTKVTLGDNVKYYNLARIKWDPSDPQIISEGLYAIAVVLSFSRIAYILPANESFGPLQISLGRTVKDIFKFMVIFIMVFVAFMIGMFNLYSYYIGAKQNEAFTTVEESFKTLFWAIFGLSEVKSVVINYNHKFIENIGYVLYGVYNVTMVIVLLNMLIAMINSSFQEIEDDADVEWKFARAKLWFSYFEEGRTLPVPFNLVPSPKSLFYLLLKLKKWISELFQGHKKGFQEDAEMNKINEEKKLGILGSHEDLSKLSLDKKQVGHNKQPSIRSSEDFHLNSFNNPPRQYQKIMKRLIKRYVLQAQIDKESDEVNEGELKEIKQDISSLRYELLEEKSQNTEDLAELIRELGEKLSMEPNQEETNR
Assay: TRPC6 calcium flux assay (FLIPR, OAG-stimulated calcium influx)
Format: cell-based
Conditions: HEK293 cells stably transfected with human TRPC6, read-out: hTRPC6 Potency
In short: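 IC50 derived by plotting background-corrected peak fluorescence (180 s window, normalized to OAG-triggered signal vs buffer) against dose. Stable human TRPC6 HEK293 line was dye-loaded, exposed to compound 25 min, then challenged with 50 uM final OAG in 2 mM Ca2+ HEPES buffer pH 7.2, 0.5% DMSO.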

Structure (SMILES)	IC50 [nM]
CN(CC(F)(F)F)C(=O)Cn1c(N2CC[C@@H](F)[C@H](N)C2)nc2ccc(Cl)cc21 [Example 559, 2-(2-((3R,4R)-3-amino-4-fluoropiperidin-1-yl)-6-chloro-1H-benzo[d]imidazol-1-yl)-N-methyl-N-(2,2,2-trifluoroethyl)acetamide]	16.6
CCOc1ccc2nc(N3CC[C@@H](F)C(N)C3)n(Cc3ccc(C#N)cc3)c2c1 (stereo in doubt) [Example 414, 4-((2-((3R,4R)-3-amino-4-fluoro-1-piperidinyl)-6-ethoxy-1H-benzimidazol-1-yl)methyl)benzonitrile]	1.5
N#Cc1ccc(Cn2c(N3CCC(F)(F)[C@H](N)C3)nc3ccc(F)cc32)nc1 [Example 88, (R)-6-((2-(3-amino-4,4-difluoropiperidin-1-yl)-6-fluoro-1H-benzo[d]imidazol-1-yl)methyl)nicotinonitrile]	0.643
N#Cc1ccc(Cn2c(N3CC[C@@H](F)[C@H](N)C3)nc3c(Cl)cccc32)cc1 [Example 408, 4-((2-((3R,4R)-3-amino-4-fluoropiperidin-1-yl)-4-chloro-1H-benzo[d]imidazol-1-yl)methyl)benzonitrile]	0.924
N#CC1(F)CCN(C(=O)Cn2c(N3CC[C@@H](F)[C@H](N)C3)nc3cc(F)c(F)cc32)C1 (stereo partly drawn) [Example 618, 1-(2-(2-((3R,4R)-3-amino-4-fluoropiperidin-1-yl)-5,6-difluoro-1H-benzo[d]imidazol-1-yl)acetyl)-3-fluoropyrrolidine-3-carbonitrile]	48.3
CN(C(=O)Cn1c(N2CC[C@@H](F)[C@H](N)C2)nc2cc(F)c(F)cc21)C1CCS(=O)(=O)C1 (mixture of isomers) [Example 525, 2-(2-((3R,4R)-3-amino-4-fluoropiperidin-1-yl)-5,6-difluoro-1H-benzo[d]imidazol-1-yl)-N-(1,1-dioxidotetrahydrothiophen-3-yl)-N-methylacetamide]	1780
N#Cc1ccc(Cn2c(N3CC[C@@H](F)[C@H](N)C3)nc3cc(OC(F)(F)F)c(Cl)cc32)nc1 [Example 124, 6-((2-((3R,4R)-3-amino-4-fluoro-1-piperidinyl)-6-chloro-5-(trifluoromethoxy)-1H-benzimidazol-1-yl)methyl)-3-pyridinecarbonitrile]	0.741
CN(CCC(F)(F)F)C(=O)Cn1c(N2CC[C@@H](F)[C@H](N)C2)nc2cc(F)c(F)cc21 [Example 622, -(2-((3R,4R)-3-amino-4-fluoropiperidin-1-yl)-5,6-difluoro-1H-benzo[d]imidazol-1-yl)-N-methyl-N-(3,3,3-trifluoropropyl)acetamide]	78.9
N#Cc1ccc(Cn2c(N3CCC(F)(F)[C@H](N)C3)nc3ccccc32)nc1 [Example 212, (R)-6-((2-(3-amino-4,4-difluoropiperidin-1-yl)-1H-benzo[d]imidazol-1-yl)methyl)nicotinonitrile hydrochloride]	3.5
C[C@H](c1ccccn1)N(C)C(=O)Cn1c(N2CC[C@@H](F)[C@H](N)C2)nc2cc(F)c(F)cc21 [Example 604]	7.78
N[C@@H]1CN(c2nc3cc(F)c(F)cc3n2CC(=O)N2CCc3sccc3C2)CC[C@H]1F [Example 505, 2-(2-((3R,4R)-3-amino-4-fluoropiperidin-1-yl)-5,6-difluoro-1H-benzo[d]imidazol-1-yl)-1-(6,7-dihydrothieno[3,2-c]pyridin-5(4H)-yl)ethan-1-one]	43.2
N#Cc1ccc(Cn2c(N3CC[C@@H](F)[C@H](N)C3)nc3cc(C(F)(F)F)c(F)cc32)nc1 [Example 21, 6-((2-((3R,4R)-3-amino-4-fluoropiperidin-1-yl)-6-fluoro-5-(trifluoromethyl)-1H-benzo[d]imidazol-1-yl)methyl)nicotinonitrile]	0.658
N#Cc1ccc(Cn2c(N3CCC[C@H](N)C3)nc3cc(C#N)ccc32)nc1 [Example 52, (S)-2-(3-aminopiperidin-1-yl)-1-((5-cyanopyridin-2-yl)methyl)-1H-benzo[d]imidazole-5-carbonitrile]	24.2
